The target of the assay is T1, Recombinant human PDE4B (Homo sapiens, UniProt Q07343).
T1 construct: amino acid 305-end; GST (N); made in house; host or cells: Sf9 insect cells (baculovirus)
The assay can be described thus: Inhibitory activity of the compounds against PDE 4B (fluorescence polarization, Transcreener AMP2/GMP2). It is filed as biochemical. The settings on record: recombinant human PDE4B (aa 305-end, GST tag); 1 μM cAMP; 1 hour at room temperature. As for the experimental part:
Inhibitory activity of the compounds against PDE 4B
The assay is based on the fluorescence polarization measuring AMP/GMP production as a result of the enzyme activity by displacement of Tracer binding to the AMP/GMP antibody.
10 mM Tris-HCl (pH 7.5), 5 mM MgCl2, 0.01% Brij 35, 1 mM DTT and 1% DMSO.
Recombinant human PDE4B (Gene accession number: NM_002600; amino acid 305-end) was expressed by baculovirus in Sf9 insect cells using an N-terminal GST tag. MW=78 kDa.
Transcreener® AMP^2/GMP^2 antibody and AMP^2/GMP^2 AlexaFluor 633 tracer
i) Recombinant human PDE4B and the enzyme substrate (1 μM cAMP) were dissolved in the newly-prepared buffer solution, respectively.
ii) The PDE4B buffer solution defined as above was transferred into the reaction wells.
iii) The compound which was dissolved in 100% DMSO was added to the reaction wells of the PDE4B buffer solution by Acoustic technology (Echo550; nanoliter range) and incubated at room temperature for 10 minutes.
iv) The enzymatic buffer solution was then added to the reaction wells defined as above to initiate the reaction.
v) The reaction was incubated at room temperature for 1 hour.
vi) The reaction was terminated by adding detecting mixture (Transcreener® AMP^2/GMP^2 antibody and AMP^2/GMP^2 AlexaFluor 633 tracer) and incubated for 90 minutes with gentle mixing. The measurement range of fluorescence polarization is Ex/Em=620/688.
The fluorescence polarization signal was converted into nM based on the AMP/GMP standard curve and the percent enzyme activity relative to DMSO calculated by Excel. GraphPad Prism was used to plot the curves (Drawing Medicine Icon)
A general note: In fluorescence polarisation assays a small probe gives low polarisation when free and higher when bound to something large.

Each structure is given as a SMILES string.

For 61 molecules, IC50 results are on record in patent publication US10532986B2, “Cyclic compound acting as PDE4 inhibitor” (MEDSHINE DISCOVERY INC., priority 2016, dated 2020).

T1 sequence (Q07343 305-736 limits assumed): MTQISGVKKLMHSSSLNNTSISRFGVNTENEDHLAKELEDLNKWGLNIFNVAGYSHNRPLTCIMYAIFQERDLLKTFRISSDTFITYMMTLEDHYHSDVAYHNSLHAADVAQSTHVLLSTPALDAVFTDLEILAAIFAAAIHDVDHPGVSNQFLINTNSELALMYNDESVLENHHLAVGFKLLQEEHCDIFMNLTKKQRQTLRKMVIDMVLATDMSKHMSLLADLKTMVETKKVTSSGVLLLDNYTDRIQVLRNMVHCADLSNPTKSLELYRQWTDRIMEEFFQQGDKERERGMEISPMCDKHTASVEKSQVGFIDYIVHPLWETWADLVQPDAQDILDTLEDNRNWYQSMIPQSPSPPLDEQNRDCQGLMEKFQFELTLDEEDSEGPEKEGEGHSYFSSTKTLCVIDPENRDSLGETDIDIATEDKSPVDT

By IC50 is commonly meant the point on the concentration scale where inhibition reaches its midpoint. For `CCOc1cc([C@@H](CS(C)(=O)=O)n2c(=O)[nH]c3cc(Br)cc(F)c32)ccc1OC` [WX001], the IC50 turned out to be 3.68 nM.

Consider `CCOc1cc([C@@H](CS(C)(=O)=O)n2c(=O)[nH]c3cc(C(F)(F)F)ccc32)ccc1OC` [WX002], for which the IC50 amounted to 6.27 nM.

As to `CCOc1cc([C@@H](CS(C)(=O)=O)n2c(=O)[nH]c3cc(Cl)ccc32)ccc1OC` [WX003], the IC50 was 2.22 nM.

In the case of `CCOc1cc([C@@H](CS(C)(=O)=O)n2c(=O)[nH]c3cc(F)ccc32)ccc1OC` [WX004], the IC50 is 11.5 nM.

In the case of `CCOc1cc([C@@H](CS(C)(=O)=O)n2c(=O)[nH]c3cc(F)cc(F)c32)ccc1OC` [WX005], the IC50 came to 92.4 nM.

In the case of `CCOc1cc([C@@H](CS(C)(=O)=O)n2c(=O)[nH]c3cc(C(F)(F)F)cc(F)c32)ccc1OC` [WX006], the 50% inhibitory concentration (IC50) turned out to be 25.7 nM.

On to `CCOc1cc([C@@H](CS(C)(=O)=O)n2c(=O)[nH]c3c(Br)cccc32)ccc1OC` [WX007], for which the IC50 was 9.2 nM.

For `CCOc1cc([C@@H](CS(C)(=O)=O)n2c(=O)[nH]c3c(Cl)cccc32)ccc1OC` [WX008], the IC50 was found to be 22.3 nM.

In the case of `CCOc1cc([C@@H](CS(C)(=O)=O)n2c(=O)[nH]c3cc(Br)ccc32)ccc1OC` [WX009], the IC50 is 6.29 nM.

As for `CCOc1cc([C@@H](CS(C)(=O)=O)n2c(=O)[nH]c3ccccc32)ccc1OC` [WX010], the half-maximal inhibitory concentration (IC50) was found to be 19.5 nM.

Consider `CCOc1cc([C@@H](CS(C)(=O)=O)n2c(=O)[nH]c3cc(-c4ccccc4F)ccc32)ccc1OC` [WX011], for which the IC50 was 0.526 nM.

Regarding `CCOc1cc([C@@H](CS(C)(=O)=O)n2c(=O)[nH]c3cc(-c4cccc(F)c4)ccc32)ccc1OC` [WX012], the IC50 was determined as 2.18 nM.

Turning to `CCOc1cc([C@@H](CS(C)(=O)=O)n2c(=O)[nH]c3cc(-c4ccc(F)cc4)ccc32)ccc1OC` [WX013], the IC50 came out at 6.11 nM.

Regarding `CCOc1cc([C@@H](CS(C)(=O)=O)n2c(=O)[nH]c3cc(-c4ccccc4C)ccc32)ccc1OC` [WX014], the half-maximal inhibitory concentration (IC50) amounted to 0.606 nM.

`CCOc1cc([C@@H](CS(C)(=O)=O)n2c(=O)[nH]c3cc(-c4ccccc4Cl)ccc32)ccc1OC` [WX015]: the IC50 worked out at 0.676 nM.

As to `CCOc1cc([C@@H](CS(C)(=O)=O)n2c(=O)[nH]c3cc(-c4ccccc4OC)ccc32)ccc1OC` [WX016], the IC50 is < 0.5 nM.

In the case of `CCOc1cc([C@@H](CS(C)(=O)=O)n2c(=O)[nH]c3cc(-c4ccccc4C(F)(F)F)ccc32)ccc1OC` [WX017], the IC50 is < 0.5 nM.

Regarding `CCOc1cc([C@@H](CS(C)(=O)=O)n2c(=O)[nH]c3cc(-c4ccccc4C(C)C)ccc32)ccc1OC` [WX018], the half-maximal inhibitory concentration (IC50) is < 0.5 nM.

For `CCOc1cc([C@@H](CS(C)(=O)=O)n2c(=O)[nH]c3cc(-c4ccccc4CC)ccc32)ccc1OC` [WX019], the IC50 is < 0.5 nM.

For `CCOc1cc([C@@H](CS(C)(=O)=O)n2c(=O)n(C3CC3)c3cc(Cl)ccc32)ccc1OC` [WX020], the IC50 was found to be 12.6 nM.

Consider `CCOc1cc([C@@H](CS(C)(=O)=O)n2c(=O)n(C3CC3)c3cc(F)ccc32)ccc1OC` [WX021], for which the 50% inhibitory concentration (IC50) was determined as 64.4 nM.

`CCOc1cc([C@@H](CS(C)(=O)=O)n2c(=O)n(C3CC3)c3cc(C(F)(F)F)ccc32)ccc1OC` [WX022]: the IC50 came out at 39.5 nM.

As to `CCOc1cc([C@@H](CS(C)(=O)=O)n2c(=O)n(C3CC3)c3cc(-c4ccccc4F)ccc32)ccc1OC` [WX023], the IC50 came out at 1.89 nM.

Turning to `CCOc1cc([C@@H](CS(C)(=O)=O)n2c(=O)[nH]c3cc(-c4ccccc4OCC)ccc32)ccc1OC` [WX024], the IC50 is < 0.5 nM.

In the case of `CCOc1cc([C@@H](CS(C)(=O)=O)n2c(=O)[nH]c3cc(-c4ncccc4F)ccc32)ccc1OC` [WX025], the IC50 stood at 1.42 nM.

Consider `CCOc1cc([C@@H](CS(C)(=O)=O)n2c(=O)[nH]c3cc(-c4nccnc4C)ccc32)ccc1OC` [WX026], for which the IC50 came to 8.44 nM.

As for `CCOc1cc([C@@H](CS(C)(=O)=O)n2c(=O)[nH]c3cc(-c4nnccc4C)ccc32)ccc1OC` [WX027], the IC50 came out at 17.8 nM.

As for `CCOc1cc([C@@H](CS(C)(=O)=O)n2c(=O)[nH]c3cc(-c4ccccc4C#N)ccc32)ccc1OC` [WX028], the concentration for half-maximal inhibition (IC50) was < 0.5 nM.

As to `CCOc1cc([C@@H](CS(C)(=O)=O)n2c(=O)[nH]c3cc(-c4nccnc4N(C)C)ccc32)ccc1OC` [WX029], the IC50 is < 0.5 nM.

Consider `CCOc1cc([C@@H](CS(C)(=O)=O)n2c(=O)[nH]c3cc(-c4nccnc4C4CC4)ccc32)ccc1OC` [WX030], for which the IC50 was found to be 1.31 nM.

As for `CCOC(=O)c1ccc2c(c1)[nH]c(=O)n2[C@H](CS(C)(=O)=O)c1ccc(OC)c(OCC)c1` [WX031], the IC50 came to 3.3 nM.

`CCOc1cc([C@@H](CS(C)(=O)=O)n2c(=O)[nH]c3cc(C(=O)OC(C)C)ccc32)ccc1OC` [WX032]: the IC50 amounted to 2.05 nM.

For `CCOc1cc([C@@H](CS(C)(=O)=O)n2c(=O)[nH]c3cc(C(=O)OCC(F)(F)F)ccc32)ccc1OC` [WX033], the half-inhibitory concentration (IC50) stood at 1.1 nM.

Take `CCOc1cc([C@@H](CS(C)(=O)=O)n2c(=O)[nH]c3cc(C(=O)O)ccc32)ccc1OC` [WX034]: the IC50 was determined as 22.4 nM.

On to `CCOc1cc([C@@H](CS(C)(=O)=O)n2c(=O)[nH]c3cc(C(=O)CC)ccc32)ccc1OC` [WX035], for which the IC50 stood at 8.3 nM.

In the case of `CCOc1cc([C@@H](CS(C)(=O)=O)n2c(=O)n(CC(F)F)c3cc(Cl)ccc32)ccc1OC` [WX036], the IC50 was found to be 9.12 nM.

Regarding `CCOc1cc([C@@H](CS(C)(=O)=O)n2c(=O)n(CC(F)(F)F)c3cc(Cl)ccc32)ccc1OC` [WX037], the IC50 was 10.8 nM.

For `CCOc1cc([C@@H](CS(C)(=O)=O)n2c(=O)n(C)c3cc(Cl)ccc32)ccc1OC` [WX038], the IC50 is 7.99 nM.

As for `CCOc1cc([C@@H](CS(C)(=O)=O)n2c(=O)n(CC)c3cc(Cl)ccc32)ccc1OC` [WX039], the IC50 worked out at 9.96 nM.

As for `CCOc1cc([C@@H](CS(C)(=O)=O)n2c(=O)n(CC3CC3)c3cc(Cl)ccc32)ccc1OC` [WX040], the IC50 stood at 7.54 nM.

For `CCOc1cc([C@@H](CS(C)(=O)=O)n2c(=O)n(CC3CCC3)c3cc(Cl)ccc32)ccc1OC` [WX041], the half-maximal inhibitory concentration (IC50) was determined as 11.9 nM.

As to `CCOc1cc([C@@H](CS(C)(=O)=O)n2c(=O)n(CCOC)c3cc(Cl)ccc32)ccc1OC` [WX042], the IC50 was 6.83 nM.

In the case of `CCOc1cc([C@@H](CS(C)(=O)=O)n2c(=O)n(CCO)c3cc(Cl)ccc32)ccc1OC` [WX043], the IC50 is 4.5 nM.

As for `CCOc1cc([C@@H](CS(C)(=O)=O)n2c(=O)n(C(C)C)c3cc(Cl)ccc32)ccc1OC` [WX044], the 50% inhibitory concentration (IC50) came to 5.12 nM.

As to `CCOc1cc([C@@H](CS(C)(=O)=O)n2c(=O)n(CC#N)c3cc(Cl)ccc32)ccc1OC` [WX045], the IC50 amounted to 3.56 nM.

For the molecule `CCOc1cc([C@@H](CS(C)(=O)=O)n2c(=O)n(CC(F)F)c3cc(F)ccc32)ccc1OC` [WX046], the IC50 was found to be 10.1 nM.

For `CCOc1cc([C@@H](CS(C)(=O)=O)n2c(=O)n(CC(F)(F)F)c3cc(F)ccc32)ccc1OC` [WX047], the half-inhibitory concentration (IC50) turned out to be 44.9 nM.

For the molecule `CCOc1cc([C@@H](CS(C)(=O)=O)n2c(=O)n(C)c3cc(F)ccc32)ccc1OC` [WX048], the IC50 is 57.8 nM.

Consider `CCOc1cc([C@@H](CS(C)(=O)=O)n2c(=O)n(CC#N)c3cc(F)ccc32)ccc1OC` [WX049], for which the IC50 amounted to 11.4 nM.

For the molecule `CCOc1cc([C@@H](CS(C)(=O)=O)n2c(=O)n(CCO)c3cc(F)ccc32)ccc1OC` [WX050], the IC50 was found to be 30.6 nM.

Regarding `CCOc1cc([C@@H](CS(C)(=O)=O)n2c(=O)n(CC(F)F)c3cc(C(F)(F)F)ccc32)ccc1OC` [WX051], the IC50 came out at 26.9 nM.

As for `CCOc1cc([C@@H](CS(C)(=O)=O)n2c(=O)n(CC(F)(F)F)c3cc(C(F)(F)F)ccc32)ccc1OC` [WX052], the IC50 was 13.7 nM.

Regarding `CCOc1cc([C@@H](CS(C)(=O)=O)n2c(=O)n(C)c3cc(C(F)(F)F)ccc32)ccc1OC` [WX053], the IC50 is 26.4 nM.

With `CCOc1cc([C@@H](CS(C)(=O)=O)n2c(=O)n(CC)c3cc(C(F)(F)F)ccc32)ccc1OC` [WX054], the IC50 stood at 13.2 nM.

As to `CCOc1cc([C@@H](CS(C)(=O)=O)n2c(=O)n(CC#N)c3cc(C(F)(F)F)ccc32)ccc1OC` [WX055], the IC50 is 21.2 nM.

For `CCOc1cc([C@@H](CS(C)(=O)=O)n2c(=O)n(CCO)c3cc(C(F)(F)F)ccc32)ccc1OC` [WX056], the IC50 was determined as 4.28 nM.

As to `CCOc1cc([C@@H](CS(C)(=O)=O)n2c(=O)n(C)c3cc(F)cc(F)c32)ccc1OC` [WX057], the IC50 was determined as 99.6 nM.

Turning to `CCOc1cc([C@@H](CS(C)(=O)=O)n2c(=O)n(CC#N)c3cc(F)cc(F)c32)ccc1OC` [WX058], the IC50 turned out to be 8.46 nM.

As to `CCOc1cc([C@@H](CS(C)(=O)=O)n2c(=O)n(CCO)c3cc(F)cc(F)c32)ccc1OC` [WX059], the IC50 is 68.3 nM.

As to `CCOc1cc([C@@H](CS(C)(=O)=O)n2c(=O)n(Cc3ccccc3F)c3cc(C(F)(F)F)cc(F)c32)ccc1OC` [WX060], the IC50 came to 34.4 nM.

`CCOc1cc([C@@H](CS(C)(=O)=O)n2c(=O)n(CC(F)F)c3c(Cl)cccc32)ccc1OC` [WX061]: the IC50 is 39 nM.
